The test addresses human tryptase. Kind of test: Inhibition of human tryptase (apparent dissociation constant Kiapp, chromogenic substrate tos-Gly-Pro-arg-pNA, heparin-stabilized). Format: biochemical. The settings on record: apparent dissociation constant in the presence of substrate; human tryptase from lung tissue or recombinant; heparin 0.1-50 μg/ml; equilibrium conditions. From the text:
The documented pathophysiological effects of mast cell tryptase are caused directly by the enzymatic activity of the protease. Accordingly, they are reduced or blocked by inhibitors which inhibit the enzymatic activity of the tryptase. A suitable measure for the affinity of a reversible inhibitor to the target protease is the equilibrium dissociation constant Ki of the enzyme-inhibitor complex. This Ki value can be determined via the effect of the inhibitor on the tryptase-induced cleavage of a chromogenic peptide-p-nitroanilide substrate or a fluorogenic peptide-aminomethylcoumarin substrate.
The dissociation constants for the tryptase-inhibitor complexes are determined under equilibrium conditions in accordance with the general proposals of Bieth (Bieth J G, Pathophysiological Interpretation of kinetic constants of protease inhibitors, Bull. Europ. Physiopath. Resp. 16:183-195, 1980) and the methods of Sommerhoff et al. (Sommerhoff C P et al., A Kazal-type inhibitor of human mast cell tryptase: Isolation from the medical leech Hirudo medicinalis, characterization, and sequence analysis, Biol. Chem. Hoppe-Seyler 375: 685-694, 1994).
Human tryptase is isolated from lung tissue or prepared recombinantly; the specific activity of the protease, determined by titration, is usually greater than 85% of the theoretical value. […] After an equilibrium between the reaction partners has formed, the remaining enzyme activity after addition of the peptide-p-nitroanilide substrate tos-Gly-Pro-arg-pNA is determined and the cleavage of the latter is monitored at 405 nm for 3 min. Alternatively, the remaining enzymatic activity can also be determined using fluorogenic substrates. The apparent dissociation constants Kiapp (i.e. in the presence of substrate) are subsequently determined by adapting the enzyme rates to the general equation for reversible inhibitors (Morrison J F, Kinetics of the reversible inhibition of enzyme-catalyzed reactions by tight-binding inhibitors, Biochim. Biophys. Acta 185, 269-286, 1969) using non-linear regression: […]

The values that follow come from patent US6815557B2, “Tryptase inhibitors” (Altana Pharma AG, priority 1999, dated 2004).

Counter-ions that a name gives are not always drawn.

`NCc1cccc(CNC(=O)OCCOCC#CCOCCOC(=O)NCc2cccc(CN)c2)c1` [Compound 1, 1,4-Bis-(3-aminomethylbenzylaminocarbonyl-1,2-dioxyethyl)-2-butyne dihydrochloride]: the Ki is 6 nM.
The figure for `NCc1ccc(CNC(=O)OCC#CC#CCOC(=O)NCc2ccc(CN)cc2)cc1` [Compound 2, 1,6-Bis-(4-aminomethylbenzylaminocarbonyl-1-oxy-2,4-hexadiynedihydrochloride] is 450 nM; for `NCc1cccc(CNC(=O)OCC#CCOC(=O)NCc2cccc(CN)c2)c1` [Compound 3, 1,4-Bis-(3-aminomethylbenzylaminocarbonyl-1-oxy)-2-butyne dihydrochloride] it is 100 nM.
